pIC50: −log10 of the molar value.
Target: T1, recombinant human mPGES-1 (Homo sapiens, UniProt O14684)
T1 construct: made in house; host or cells: Rosetta E. coli (membrane/microsome fraction)
T1 sequence (O14684 1-152): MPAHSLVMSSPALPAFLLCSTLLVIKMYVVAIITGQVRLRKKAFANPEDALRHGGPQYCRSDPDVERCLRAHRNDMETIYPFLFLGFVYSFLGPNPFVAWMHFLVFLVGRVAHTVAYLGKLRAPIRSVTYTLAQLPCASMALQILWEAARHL
Experiment: mPGES-1 enzyme assay (HTRF detection of PGE2)
Format: biochemical
Conditions: recombinant human mPGES-1 microsomes, PGH2 2 μM, read-out: mPGES-1 inhibitory effect IC50
Experimental: Microsomes from Rosetta E. coli bacteria expressing recombinant human mPGES-1 can be derived as described below:
Inoculate 5 ml LB with Ampicilin (50 μg/ml) and Chloramphenicol (34 μg/ml) with bacteria from freeze culture. Incubate 8 h at 37° C. with 200 rpm. Thereafter, inoculate 500-1000 ml LB containing Amp and Chloro with the 5 ml on culture and grow to OD640 of 0.8-1.0.
Chill the culture to +4° C. before induction. Induce the culture with IPTG at a final concentration of 400 μM. Express the protein at room temp 18-23° C. with 200 rpm shaking over night.
The following steps can be performed on the following day: • 1. Spin down the cells in 250 ml centrifuge flasks for 15 min at 7000 rpm (Beckmann Coulte Avanti J-E centrifuge) • 2. Dissolve the pellet from 250 ml culture in 12.5 ml homogenization buffer • 3. (15 mM Tris-HCL pH8, 1 mM EDTA pH8, 0.25 mM Sucrose, 2.5 mM GSH, 1Tablet Protease inhibitor per 50 ml buffer) • 4. Disintegrate the cells by sonication, 5×10 seconds at 48% amplitude of a 750 W sonifier • 5. Add 2.5 ml MgCl2 (100 mM) and DNase 12.5 μl (0.8 mg/ml) and incubate on ice for 30 min • 6. Spin down the bacteria debris and save the supernatant, 7000 rpm for 15 min • 7. Isolate the protein containing membranes in the supernatant by ultracentrifugation 120000×g for 2 hour at 4° C. (Sorvall T880 rotor). • 8. Discard the supernatant and dissolve the pellet in 20 mM Potassium phosphate buffer pH7.4 (KH2PO4 and K2HPO4) buffer by sonication (5×10 s, 30% of a 50 W sonifier) and aliquot the enzyme and store aliquots at −80° C.
Before each experiment is performed an aliquot of the enzyme is thawed and it can then be dissolved in 0.1 M Potassium phosphate buffer pH7.4 (KH2PO4 and K2HPO4) buffer containing 2.5 mM GSH.
The aim of this assay is to determine the affinity of a test compound for the mPGES-1 enzyme.
47 μl of recombinant human mPGES-1 (˜0.5 μg protein/well) containing microsomal suspension in a buffer containing GSH, (2.5 mmol/L L-Glutathione reduced, dissolved in 0.1 mol/L Phosphat Buffer pH 7.4) is dispensed in a 384-well plate and thereafter 1 μl of the test compound(s) is/are added and incubated for 25 minutes at room temperature. The enzyme reaction is started by the addition of 2 ul PGH2 (final conc. 2 μM) dissolved in water-free Diglyme. After 60 seconds the reaction is terminated by addition of a stop solution containing FeCl2 (10 μL 0.074 mol/l FeCl2). The samples are diluted between 1:25 in PBS (Phosphate Buffered Saline). 10 μl of the diluted samples are transferred to 384-well low volume plate. In order to quantify the amount of PGE2 that has been formed, a homogenous time resolved fluorescent (HTRF) detecting of PGE2 has been performed using a commercially available kit from Cisbio according to the manufactures recommendation. This HTRF-based assay has been described in detail (see: Goedken et al., J Biomol Screen, 2008, 13(7), 619-625). Briefly, the diluted samples are mixed with 5 μl PGE2-d2 conjungate and 5 μl anti-PGE2 cryptate conjungate. After an incubation period of the plates over night, the fluorescence is measured by the use of an appropriate microplate reader.
The fluorescence of Europium cryptate (maxex=307 nm, maxem=620 nm) and d2-PGE2 (maxex=620 nm, maxem=665 nm) are measured.
The extent of the specific HTRF is measured as a ratio of the emission intensity at 665 nm vs. that at 620 nm at an excitation pulse of 320 nm. The quantification plate contains also wells with different concentrations of PGE2 as calibration curve for the calculation of the PGE2 concentrations from the HTRF ratio values.
From all mPGES enzyme assay the background is subtracted and the IC50 is calculated over a nonlinear regression with conventional software.

SMILES | pIC50
COCCOc1nc2c(cc1C(=O)N[C@H]1CC[C@H](C(F)(F)F)CC1)nc(Nc1cc(CNC(=O)C3(C(F)(F)F)CC3)ccc1Cl)n2C [Example 4] | 8.10
O=C(N[C@H]1CC[C@H](C(F)(F)F)CC1)c1cc2[nH]c(Nc3cc(CNC(=O)C4(C(F)(F)F)CC4)ccc3Cl)nc2nc1OCCF [Example 7] | 8.10
COCCOc1nc2nc(Nc3cc(CNC(=O)C4(C(F)(F)F)CC4)ccc3Cl)[nH]c2cc1C(=O)N[C@H]1CC[C@H](C(F)(F)F)CC1 [Example 3] | 7.68
Cn1c(Nc2cc(CNC(=O)C(C)(C)C)ccc2Cl)nc2cc(C(=O)Nc3ccc(Br)cc3)c(OCC(F)F)nc21 [Example 1, N-{4-Chloro-3-[6-(4-bromo-phenylcarbamoyl)-5-(2,2-difluoro-ethoxy)-3-methyl-3H-imidazo[4,5-b]pyridin-2-ylamino]benzyl}-2,2-dimethyl-propionamide] | 8.05
CC(C)(C)C(=O)NCc1ccc(Cl)c(Nc2nc3cc(C(=O)N[C@H]4CC[C@H](C(F)(F)F)CC4)c(OCC(F)F)nc3n2CC(F)F)c1Cl [Example 15] | 8.40
CC(C)(C)C(=O)NCc1ccc(F)c(Nc2nc3cc(C(=O)N[C@H]4CC[C@H](C(F)(F)F)CC4)c(OCC(F)F)nc3[nH]2)c1F [Example 11] | 8.40
Cn1c(Nc2cc(CNC(=O)C3(C(F)(F)F)CC3)ccc2Cl)nc2cc(C(=O)N[C@H]3CC[C@H](C(F)(F)F)CC3)c(OCCF)nc21 [Example 6] | 8.40
Cn1c(Nc2c(F)ccc(CNC(=O)C(C)(C)C)c2F)nc2cc(C(=O)N[C@H]3CC[C@H](C(F)(F)F)CC3)c(OCC(F)F)nc21 [Example 10, N-{2,4-Difluoro-3-[6-(trans-4-trifluoromethyl-cylohexylcarbamoyl)-5-(2,2-difluoro-ethoxy)-3-methyl-3H-imidazo[4,5-b]pyridin-2-ylamino]benzyl}-2,2-dimethyl-propionamide] | 8.30
Cn1c(Nc2cc(CNC(=O)C(C)(C)C)ccc2Cl)nc2cc(C(=O)N[C@H]3CC[C@H](C(F)(F)F)CC3)c(OCC(F)F)nc21 [Example 2, N-{4-Chloro-3-[6-(trans-4-trifluoromethyl-cyclohexylcarbamoyl)-5-(2,2-difluoro-ethoxy)-3-methyl-3H-imidazo[4,5-b]pyridin-2-ylamino]benzyl}-2,2-dimethyl-propionamide] | 8.52
O=C(N[C@H]1CC[C@H](C(F)(F)F)CC1)c1cc2nc(Nc3cc(CNC(=O)C4(C(F)(F)F)CC4)ccc3Cl)[nH]c2nc1OCC(F)F [Example 5] | 8.40
Cn1c(Nc2c(Cl)ccc(CNC(=O)C(C)(C)C)c2Cl)nc2cc(C(=O)N[C@H]3CC[C@H](C(F)(F)F)CC3)c(OCC(F)F)nc21 [Example 9, N-{2,4-Dichloro-3-[6-(trans-4-trifluoromethyl-cyclohexylcarbamoyl)-5-(2,2-difluoro-ethoxy)-3-methyl-3H-imidazo[4,5-b]pyridin-2-ylamino]benzyl}-2,2-dimethyl-propionamide] | 8.22

The remaining lines, values ahead:

pIC50 | SMILES
9.00 | O=C(N[C@H]1CC[C@H](C(F)(F)F)CC1)c1cc2nc(Nc3c(Cl)ccc(CNC(=O)C4(C(F)(F)F)CC4)c3Cl)[nH]c2nc1OCCOC(F)F [Example 12]
8.52 | CC(C)(C)C(=O)NCc1ccc(Cl)c(Nc2nc3cc(C(=O)N[C@H]4CC[C@H](C(F)(F)F)CC4)c(OCC(F)F)nc3[nH]2)c1Cl [Example 8, N-{2,4-Dichloro-3-[6-(trans-4-trifluoromethyl-cyclohexylcarbamoyl)-5-(2,2-difluoro-ethoxy)-1H-imidazo[4,5-b]pyridin-2-ylamino]benzyl}-2,2-dimethyl-propionamide]
9.00 | CC(C)(C)C(=O)NCc1ccc(Cl)c(Nc2nc3cc(C(=O)N[C@H]4CC[C@H](C(F)(F)F)CC4)c(OCC(F)F)nc3[nH]2)c1F [Example 156, N-{2-Fluoro-4-chloro-3-[6-(trans-4-trifluoromethyl-cyclohexylcarbamoyl)-5-(2,2-difluoro-ethoxy)-1H-imidazo[4,5-b]pyridin-2-ylamino]benzyl}-2,2-dimethyl-propionamide]
9.00 | CC(C)(C)C(=O)NCc1ccc(Cl)c(Nc2nc3cc(C(=O)NCC(F)F)c(OCC(F)F)nc3n2CC(F)F)c1Cl [Example 14]
8.70 | CC(C)(C)C(=O)NCc1ccc(Cl)c(Nc2nc3cc(C(=O)Nc4ccc(F)c(Cl)c4)c(OCC(F)F)nc3[nH]2)c1Cl [Example 157]
